Data: patent publication EP0059645A1, “Method and kit for identification of beta-lactamases” (NATIONAL RESEARCH DEVELOPMENT CORPORATION, priority 1981, dated 1982)
Marks after values point to notes of the source that are not given here.

Columns and labels:
Test in all cases: Competitive assay with nitrocefin (RSAI)
OXA-3 = OXA-3 (Pseudomonas aeruginosa, UniProt Q51429); assay type: biochemical, E. coli R57B; set-up: Normally, therefore, the beta-lactamase has to be extracted from the cells for the purpose of the present invention; endogenous in cells
PSE-1 = PSE-1 (Pseudomonas aeruginosa, UniProt Q03170); assay type: biochemical, Ps.aerug. 1937E; set-up: Normally, therefore, the beta-lactamase has to be extracted from the cells for the purpose of the present invention; endogenous in cells
SHV-1 = SHV-1 (Escherichia coli, UniProt P0AD63); assay type: biochemical, E. coli 2008E; set-up: the beta-lactamase has to be extracted from the cells for the purpose of the present invention; made in house; host or cells: E. coli 2008E (crude cell extract)
[1] = biological target: T1, Chromosomal, induced beta-lactamase enzyme (Pseudomonas aeruginosa, UniProt P24735); assay type: biochemical, Ps.aerug. 1937E + ampicillin
T1 construct: Normally, therefore, the beta-lactamase has to be extracted from the cells for the purpose of the present invention; endogenous in cells; host or cells: Pseudomonas aeruginosa 1937E grown with ampicillin

[2] = biological target: Chromosomal, hyper-induced beta-lactamase enzyme (Escherichia coli, UniProt P00811); assay type: biochemical, E. coli SNU35; set-up: Normally, therefore, the beta-lactamase has to be extracted from the cells for the purpose of the present invention; endogenous in cells; host or cells: E. coli SNU 35 (artificially produced strain)
PSE-3 = assay type: biochemical, Ps.aerug. 1920E
PSE-4 = PSE-4 (Pseudomonas aeruginosa, UniProt P16897); assay type: biochemical, Ps.aerug. 1559E; set-up: Normally, therefore, the beta-lactamase has to be extracted from the cells for the purpose of the present invention; endogenous in cells
K10317 = assay type: biochemical, K.aerog. 10317
Text: (§1) It is convenient to express the results in terms of a Relative Substrate Affinity Index (RSAI) value.
(§2) RSAI = Concentration of competing substrate which gives 50% inhibition of ring-opening hydrolysis of the chromogenic substrate
(§3) Concentration of chromogenic substrate in the assay A high RSAI value therefore indicates a low affinity of the beta-lactamase for that competing substrate, and therefore predicts resistance of a beta-lactam competing substrate to hydrolysis by the beta-lactamase. Low RSAI values, in contrast, predict sensitivity to hydrolysis by a beta-lactamase.
(§4) Beta-lactam antibiotics which bind to the TEM-2 enzyme compete with nitrocefin in the assay. […] . This concentration of ampicillin is a direct estimate of the relative affinity of the TEM-2 enzyme for ampicillin. […] . The RSAI value was therefore 1.3.

[3] = biological target: T2, Chromosomal, constitutive beta-lactamase enzyme (Enterobacter cloacae, UniProt P05364); assay type: biochemical, E. cloacae
T2 construct: Normally, therefore, the beta-lactamase has to be extracted from the cells for the purpose of the present invention; endogenous in cells

HMS-1 = assay type: biochemical, E. coli 1946
TEM-1 = TEM-1 (Escherichia coli, UniProt P62593); assay type: biochemical, E. coli 2136E; set-up: the beta-lactamase has to be extracted from the cells for the purpose of the present invention; made in house; host or cells: E. coli 2136E (plasmid-bearing strain; crude cell extract)
K1073 = assay type: biochemical, Klebsiella 1073
Text: as §1, §2, §3, §4

OXA-2 = OXA-2 (Escherichia coli, UniProt P0A1V9); assay type: biochemical, E. coli R46; set-up: the beta-lactamase has to be extracted from the cells for the purpose of the present invention; made in house; host or cells: E. coli carrying R46 according to the earlier reading (crude cell extract)
TEM-2 = TEM-2 (Escherichia coli, UniProt P62593, Q37K); assay type: biochemical, E. coli 1725E
Text: as §1, §2, §3, §4

PSE-2 = PSE-2 (Pseudomonas aeruginosa, UniProt P14489); assay type: biochemical, Ps.aerug. 1973E; set-up: Normally, therefore, the beta-lactamase has to be extracted from the cells for the purpose of the present invention; endogenous in cells
OXA-1 = OXA-1 (Escherichia coli, UniProt P13661); assay type: biochemical, E. coli 1527E; set-up: the beta-lactamase has to be extracted from the cells for the purpose of the present invention; made in house; host or cells: E. coli 1527E according to the earlier reading (crude cell extract)
K17 = assay type: biochemical, Klebsiella 17
Text: as §1, §2, §3, §4

Structure (SMILES)	RSAI (OXA-3)	RSAI (PSE-1)	RSAI (SHV-1)	RSAI [1]	RSAI [2]	RSAI (PSE-3)	RSAI (PSE-4)	RSAI (K10317)	RSAI [3]	RSAI (HMS-1)	RSAI (TEM-1)	RSAI (K1073)	RSAI (OXA-2)	RSAI (TEM-2)	RSAI (PSE-2)	RSAI (OXA-1)	RSAI (K17)
CC1(C)S[C@@H]2[C@H](NC(=O)C(C(=O)O)c3ccccc3)C(=O)N2[C@H]1C(=O)O (stereo partly shown) [Carbeni-cillin, carbenicillin]	12	1.4	0.5	0.008	0.00005*	1.35	3	0.7	0.0003*	0.09	0.6	0.5	15	0.4	5.5	0.5	0.4
CC1(C)[C@H](C(=O)O)N2C(=O)C[C@H]2S1(=O)=O [CP 45,899]	0.05*	0.036	0.018*	2.5*	1.7*	0.0014	0.015*	0.08	6.5*	0.025*	0.02	0.18	0.15*	0.04*	16	8*	0.5
CCN1CCN(C(=O)N[C@@H](C(=O)N[C@@H]2C(=O)N3C(C(=O)O)=C(CSc4nnnn4C)CS[C@H]23)c2ccc(O)cc2)C(=O)C1=O [Cefopera-zone, cefoperazone]	2	0.019	4.5	0.5	1.9	0.07	0.014	5	1.3	0.2	8	2.2	2	10	0.48	4.5	0.006
CO/N=C(\C(=O)N[C@@H]1C(=O)N2C(C(=O)O)=C(CSc3nc(=O)c(=O)[nH]n3C)CS[C@H]12)c1csc(N)n1 [RO-13 9904]	3	14	160	38	0.01	36	42	74	0.0003*	14	400	116	10	600	0.76	0.9	4
CC1(C)S[C@@H]2[C@H](NC(=O)[C@H](NC(=O)N3CCNC3=O)c3ccccc3)C(=O)N2[C@H]1C(=O)O [Azlo-cillin, Azlocillin]	9	0.23	1.6	0.05	0.02	0.54	0.36	3	0.05	0.42	1	1.9	19	1.1	2.64	1.4	1.1
CC1(C)S[C@@H]2[C@H](NC(=O)Cc3ccccc3)C(=O)N2[C@H]1C(=O)O [Peni-cillin G, Penicillin G]	0.4	0.6	1	0.13	0.18	0.3	0.48	2.2	0.08	0.5	3	2	0.6	1	0.2	0.2	1.2
CO/N=C(\C(=O)N[C@@H]1C(=O)N2C(C(=O)O)=C(COC(N)=O)CS[C@H]12)c1ccco1 [Cefuroxime]	0.003	50	20	0.0001	0.002	12	34	14	0.0002	16	50	12	3.6	40	1.7	10	2.3
CC(=O)OCC1=C(C(=O)O)N2C(=O)[C@@H](NC(=O)Cc3cccs3)[C@H]2SC1 [Cephalo-thin, Cephalothin]	0.4	4	7	0.7	0.8	0.76	6	7	0.6	1	10	5.8	0.7	15	0.54	4	1.8
